In ChEMBL document CHEMBL1201862, “PubChem BioAssay data set” (2004):
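Five concentrations, 48 hours, 96-well plates. GI50 = concentration required for 50% inhibition of growth.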 Calls of active or inactive are those of the source. Rule as the data show it: active = GI50 up to about 1.1 µM and inactive = higher.

What was measured:
Assay in all cases: NCI-60 cell line screen, 48 h
CAKI-1 = tested on: CAKI-1
CCRF-CEM = tested on: CCRF-CEM
HCC 2998 = tested on: HCC 2998
HCT-116 = tested on: HCT-116
HL-60 = tested on: HL-60
K562 = tested on: K562
LOX IMVI = tested on: LOX IMVI
MDA-MB-435 = tested on: MDA-MB-435
MDA-N = tested on: MDA-N
OVCAR-3 = tested on: OVCAR-3
OVCAR-4 = tested on: OVCAR-4
PC-3 = tested on: PC-3
RXF 393 = tested on: RXF 393
SF-539 = tested on: SF-539
SK-MEL-5 = tested on: SK-MEL-5
SR = tested on: SR
TK-10 = tested on: TK-10
UACC-62 = tested on: UACC-62
UO-31 = tested on: UO-31
DLD-1 = tested on: DLD-1

Structure (SMILES)	GI50 (CAKI-1)	GI50 (CCRF-CEM)	GI50 (HCC 2998)	GI50 (HCT-116)	GI50 (HL-60)	GI50 (K562)	GI50 (LOX IMVI)	GI50 (MDA-MB-435)	GI50 (MDA-N)	GI50 (OVCAR-3)	GI50 (OVCAR-4)	GI50 (PC-3)	GI50 (RXF 393)	GI50 (SF-539)	GI50 (SK-MEL-5)	GI50 (SR)	GI50 (TK-10)	GI50 (UACC-62)	GI50 (UO-31)	GI50 (DLD-1)
Cc1ncc(CO)c(/C=N/CCCCCC/N=C/c2c(CO)cnc(C)c2[O-])c1[O-].[Mg+2]	> 100 µM (inactive)	36.2 µM (inactive)	> 100 µM (inactive)	> 100 µM (inactive)	> 100 µM (inactive)	> 100 µM (inactive)	> 100 µM (inactive)	> 100 µM (inactive)	> 100 µM (inactive)	> 100 µM (inactive)	> 100 µM (inactive)	> 100 µM (inactive)	> 100 µM (inactive)	> 100 µM (inactive)	> 100 µM (inactive)	92.7 µM (inactive)	> 100 µM (inactive)	> 100 µM (inactive)	> 100 µM (inactive)	
CN(C)CC1CCC/C(=C\c2ccc(OC(=O)/C=C/c3ccc(Cl)cc3)cc2)C1=O (stereo not given)	2.62 µM (inactive)	1.06 µM (active)	5.43 µM (inactive)	3.56 µM (inactive)	1.07 µM (active)	1.23 µM (inactive)	1.58 µM (inactive)	5.28 µM (inactive)	6.9 µM (inactive)	4.97 µM (inactive)	12.5 µM (inactive)	5.35 µM (inactive)	1.32 µM (inactive)	2.57 µM (inactive)	2.16 µM (inactive)	1.09 µM (active)	1.31 µM (inactive)	8.81 µM (inactive)	4.99 µM (inactive)	
Cc1ccc(OCC2OC(n3cnc4nc(Cl)nc(Cl)c43)CC2Oc2ccc(C)cc2)cc1 (stereo not given)	4.75 µM (inactive)	2.99 µM (inactive)	3.39 µM (inactive)	4.55 µM (inactive)	0.402 µM (active)	1.95 µM (inactive)	2 µM (inactive)	5.3 µM (inactive)	3.74 µM (inactive)	6.38 µM (inactive)	15.7 µM (inactive)	11.6 µM (inactive)	3.85 µM (inactive)	5.94 µM (inactive)	16.3 µM (inactive)	1.78 µM (inactive)	13.8 µM (inactive)	6.04 µM (inactive)	10.1 µM (inactive)	
Cn1c(O)c(C(=O)NC2CCCCC2)c(=O)n(C)c1=S	5.89 µM (inactive)	5.83 µM (inactive)					8.81 µM (inactive)			4.93 µM (inactive)	6.75 µM (inactive)			9.16 µM (inactive)	5.05 µM (inactive)	17.9 µM (inactive)	6.32 µM (inactive)	4.57 µM (inactive)	3.24 µM (inactive)	4.93 µM (inactive)
CC1=NN(C(=O)CC(=O)Nc2ccc(C)cc2)C(=O)C1/N=N/c1ccc(C(=O)O)cc1 (stereo not given)	> 100 µM (inactive)	> 100 µM (inactive)	> 100 µM (inactive)	> 100 µM (inactive)	> 100 µM (inactive)	> 100 µM (inactive)	69.3 µM (inactive)	> 100 µM (inactive)	> 100 µM (inactive)	> 100 µM (inactive)	> 100 µM (inactive)	> 100 µM (inactive)	> 100 µM (inactive)	> 100 µM (inactive)	> 100 µM (inactive)	78.5 µM (inactive)	> 100 µM (inactive)	> 100 µM (inactive)	55.8 µM (inactive)	
COc1ccccc1/C=C1\Sc2scc(-c3ccc(O)c(O)c3)[n+]2C1=O	15.1 µM (inactive)	2.57 µM (inactive)	16.6 µM (inactive)	16.8 µM (inactive)	2.28 µM (inactive)	9.51 µM (inactive)	18 µM (inactive)	27.2 µM (inactive)	23.9 µM (inactive)	16.6 µM (inactive)	26.8 µM (inactive)	28.2 µM (inactive)	17.7 µM (inactive)	20.7 µM (inactive)	18.1 µM (inactive)	6.67 µM (inactive)	28.5 µM (inactive)	16.7 µM (inactive)	18.7 µM (inactive)	
CCCCCCCCCC1C(C)c2c([nH]c3ccccc23)C2C(=O)N(c3ccccc3)C(=O)C21 (stereo not given)	14 µM (inactive)	3.1 µM (inactive)	12.9 µM (inactive)	2.94 µM (inactive)	3.71 µM (inactive)	3.67 µM (inactive)				3.43 µM (inactive)	5.9 µM (inactive)		1.85 µM (inactive)	19.7 µM (inactive)	17 µM (inactive)		28 µM (inactive)	18.3 µM (inactive)	13 µM (inactive)	14.9 µM (inactive)
N[C@H]1c2c(Br)sc(Br)c2C(=O)[C@H]1O	0.214 µM (active)	2.72 µM (inactive)	13.8 µM (inactive)	16.4 µM (inactive)	2.85 µM (inactive)	3.44 µM (inactive)	3.61 µM (inactive)	13.7 µM (inactive)	13.2 µM (inactive)	7.36 µM (inactive)	11.4 µM (inactive)	28.5 µM (inactive)	4.95 µM (inactive)	18.5 µM (inactive)	12.5 µM (inactive)	2.69 µM (inactive)	96.8 µM (inactive)	6.79 µM (inactive)	20.3 µM (inactive)	
CCSc1c(C)c2c(n(Cc3ccc(OC)cc3)c1=O)Cc1ccccc1C2	44 µM (inactive)	2.02 µM (inactive)	13.6 µM (inactive)	11.2 µM (inactive)	6.17 µM (inactive)	16.5 µM (inactive)	11.9 µM (inactive)	25.1 µM (inactive)	10.4 µM (inactive)	20.1 µM (inactive)	21.4 µM (inactive)	15.3 µM (inactive)	32.1 µM (inactive)	19.2 µM (inactive)	15.4 µM (inactive)	3.61 µM (inactive)	27.2 µM (inactive)	22.9 µM (inactive)	12.4 µM (inactive)	
O=C1CC(c2c(-c3ccccc3)[nH]c3ccccc23)C(=O)N1 (stereo not given)	71.9 µM (inactive)	> 100 µM (inactive)	> 100 µM (inactive)	> 100 µM (inactive)	> 100 µM (inactive)	> 100 µM (inactive)				> 100 µM (inactive)	> 100 µM (inactive)		> 100 µM (inactive)	> 100 µM (inactive)	> 100 µM (inactive)		> 100 µM (inactive)	89.3 µM (inactive)	76.6 µM (inactive)	> 100 µM (inactive)
CC(=O)Nc1ccc(S(=O)(=O)c2nnc(NC(C)=O)s2)cc1	> 100 µM (inactive)	> 100 µM (inactive)	> 100 µM (inactive)	> 100 µM (inactive)	> 100 µM (inactive)	> 100 µM (inactive)	> 100 µM (inactive)	> 100 µM (inactive)	> 100 µM (inactive)	> 100 µM (inactive)	> 100 µM (inactive)	0.401 µM (active)	> 100 µM (inactive)	> 100 µM (inactive)	> 100 µM (inactive)	> 100 µM (inactive)	> 100 µM (inactive)	> 100 µM (inactive)	> 100 µM (inactive)	
CC(C(=O)c1ccc(O)cc1)C1(O)C(=O)Nc2c(Cl)cc(Cl)cc21 (stereo not given)	> 100 µM (inactive)	26.6 µM (inactive)	> 100 µM (inactive)	43.1 µM (inactive)	20.9 µM (inactive)	2.56 µM (inactive)	24.8 µM (inactive)			31.6 µM (inactive)	21.7 µM (inactive)		24.6 µM (inactive)	51.2 µM (inactive)	17.1 µM (inactive)		> 100 µM (inactive)	14 µM (inactive)	> 56.6 µM (inactive)	> 89.7 µM (inactive)
C=CCSC1=N/C(=C\c2ccc(OC)cc2)C(=O)N1CC=C	50.5 µM (inactive)	16.6 µM (inactive)	23.9 µM (inactive)	25.4 µM (inactive)	16 µM (inactive)	23.7 µM (inactive)	33 µM (inactive)	26.4 µM (inactive)	23.2 µM (inactive)	45.9 µM (inactive)	28.2 µM (inactive)	20.8 µM (inactive)	14.6 µM (inactive)	36.6 µM (inactive)	15.6 µM (inactive)	13.5 µM (inactive)	45.2 µM (inactive)	30.3 µM (inactive)	34.3 µM (inactive)	
C#CCOCn1cnc2c(Sc3c([N+](=O)[O-])ncn3C)ncnc21	> 100 µM (inactive)	97.7 µM (inactive)	> 100 µM (inactive)		> 100 µM (inactive)	> 100 µM (inactive)	> 100 µM (inactive)			> 100 µM (inactive)	87.5 µM (inactive)		> 100 µM (inactive)		> 100 µM (inactive)		> 100 µM (inactive)	> 100 µM (inactive)	91.8 µM (inactive)	> 100 µM (inactive)
Cc1ccc(O)c(C(=O)CCCC(=O)c2cc(C)ccc2O)c1	> 100 µM (inactive)	> 100 µM (inactive)	0.152 µM (active)		27.4 µM (inactive)	35 µM (inactive)	57.1 µM (inactive)				74.5 µM (inactive)			> 100 µM (inactive)	> 100 µM (inactive)		48.1 µM (inactive)	> 100 µM (inactive)	44.9 µM (inactive)	> 100 µM (inactive)
O=C1c2cccc(O)c2C(=O)c2cccc(O)c21 [ANTHRARUFIN]	> 100 µM (inactive)	> 100 µM (inactive)	> 100 µM (inactive)	> 100 µM (inactive)		> 100 µM (inactive)	> 100 µM (inactive)			> 100 µM (inactive)	> 100 µM (inactive)		> 100 µM (inactive)	> 100 µM (inactive)			> 100 µM (inactive)	> 100 µM (inactive)	> 100 µM (inactive)	> 100 µM (inactive)
